The values that follow come from patent US20100204313A1, “Modulation of nerve pain activity by resiniferatoxin and uses thereof” (priority 2007, published 2010).

Entries after “also recorded” stand apart in the source; their conditions may differ.

In series [1] the test system is gastropancreatic nerves. The experiment in a line: Afferent nerve signaling to colorectal distention after intragastric resiniferatoxin. Type of series: in vivo. The following applies: rat stomach, 4 hours after intragastric resiniferatoxin vs baseline. The protocol: The top row represents the baseline response. Note the near complete absence of responses 4 hours after intragastric resiniferatoxin.
Resiniferatoxin is the principal active ingredient in the classic drug Euphorbium, the air-dried latex (resin) of the cactus-like plant Euphorbia resinifera. It is an ultra-potent analog of capsaicin and local application causes desensitization without prior excitation of afferent nerves that lasts for several weeks (Neubert et al, 2003; Kissin et al, 2002; Xu et al, 1997; Craft et al, 1995; Avelino et al, 1999; Acs et al, 1997; Abdel-Salam et al, 1994).

The next series relates to gastric emptying. The experiment in a line: Gastric emptying of solid foods after local instillation. The following applies: 100 nM/kg, vs control. Type of series: in vivo, rat. The protocol:
These experiments were done in male rats. Resiniferatoxin was instilled at 100 nM/kg body weight, 0.6 microgm/ml, into either the stomach or jejunum. Controls received saline in the stomach. Five weeks later gastric emptying of solid foods was measured. […] The combination of faster emptying and anti-nauseant effect makes it a very appropriate treatment for gastroparesis.

The next series has as its system afferent nerves. The following applies: desensitization of afferent nerves; cited from earlier work.
A further series relates to nociceptors. The following applies: functional denervation of the pancreas; cited from earlier work.
The target of series [2] is T1, TRPV1 (Mus musculus, UniProt Q704Y3).
T1 construct: capsazepine, a selective TRPV1 antagonist, can reduce cerulein-induced pancreatitis in mice; host or cells: living mice, cerulein-induced pancreatitis
The following applies: mice, cited from earlier work.

Series [3] has as its system gastropancreatic nerves. As to the method: Capsaicin dose was 0.05 mg/0.3 ml in 40% ethanol for each group (n=8 rats/group).
Transient receptor potential vanilloid type-1 activation on the gastric side of gastropancreatic nerves can trigger axonal reflexes. Based on the known interaction between alcohol and transient receptor potential vanilloid type-1, it is possible that intragastric ethanol might also stimulate these nerves. […] At the same time, there was an intra-pancreatic canula in place and recording electrodes positioned around nerve fibers in the greater splanchnic nerve that were responsive to mechanical stimulation of the pancreas. Five minutes after intragastric ethanol, capsaicin was infused into the pancreatic duct.

In the next series the test system is nocifensive behaviors. The following applies: 20% ethanol 1.6 gm/kg 3 times a day for 3 days; current 2, 5 and 10 mA; vs saline TNBS rats; P<0.001.
The target in series [4] is T2, TRPV1 (Rattus norvegicus, UniProt O35433). The following applies: in vitro, cited from earlier work.
Series [5] relates to TRPV1. The following applies: various tissues, capsazepine-sensitive; cited from earlier work.
The subject of another series is guinea pig bronchi. The following applies: ex-vivo; sensitive to TRPV1 and tachykinin receptor blockade; cited from earlier work.
For a further series, the system named is guinea pig airways. The following applies: intravenous 221 mg/kg or intragastric 790 mg/kg; capsazepine-sensitive; cited from earlier work.
In series [6] the test system is transient receptor potential vanilloid type-1 on gastric branches of dichotomous gastropancreatic nerves. Description: Pancreatic edema (water content) after intragastric infusion with pyloric ligation. Type of series: in vivo. The following applies: intragastric infusion of 1.2 ml of 1.6 μM after pyloric ligation; pancreas harvested 30 minutes later. The protocol: Capsaicin was infused into the stomach after pyloric ligation and 30 minutes later the pancreas was harvested and water content was measured.
Next, the functional correlate of this anatomical convergence was determined. It was hypothesized that intragastric capsaicin will activate transient receptor potential vanilloid type-1 on gastric branches of dichotomous gastropancreatic nerves and via an axonal reflex result in edema of the pancreas. After pyloric ligation, intragastric infusion of 1.2 ml of 1.6 μM capsaicin was followed 30 minutes later by harvesting of the pancreas and measurement of water content.

Series [7] addresses T2, TRPV1. Set-up: host or cells: living rats (sensory neurons), TNBS chronic pancreatitis model. The following applies: systemic administration, chronic pancreatitis; cited from earlier work.

T2 sequence (O35433 whole entry): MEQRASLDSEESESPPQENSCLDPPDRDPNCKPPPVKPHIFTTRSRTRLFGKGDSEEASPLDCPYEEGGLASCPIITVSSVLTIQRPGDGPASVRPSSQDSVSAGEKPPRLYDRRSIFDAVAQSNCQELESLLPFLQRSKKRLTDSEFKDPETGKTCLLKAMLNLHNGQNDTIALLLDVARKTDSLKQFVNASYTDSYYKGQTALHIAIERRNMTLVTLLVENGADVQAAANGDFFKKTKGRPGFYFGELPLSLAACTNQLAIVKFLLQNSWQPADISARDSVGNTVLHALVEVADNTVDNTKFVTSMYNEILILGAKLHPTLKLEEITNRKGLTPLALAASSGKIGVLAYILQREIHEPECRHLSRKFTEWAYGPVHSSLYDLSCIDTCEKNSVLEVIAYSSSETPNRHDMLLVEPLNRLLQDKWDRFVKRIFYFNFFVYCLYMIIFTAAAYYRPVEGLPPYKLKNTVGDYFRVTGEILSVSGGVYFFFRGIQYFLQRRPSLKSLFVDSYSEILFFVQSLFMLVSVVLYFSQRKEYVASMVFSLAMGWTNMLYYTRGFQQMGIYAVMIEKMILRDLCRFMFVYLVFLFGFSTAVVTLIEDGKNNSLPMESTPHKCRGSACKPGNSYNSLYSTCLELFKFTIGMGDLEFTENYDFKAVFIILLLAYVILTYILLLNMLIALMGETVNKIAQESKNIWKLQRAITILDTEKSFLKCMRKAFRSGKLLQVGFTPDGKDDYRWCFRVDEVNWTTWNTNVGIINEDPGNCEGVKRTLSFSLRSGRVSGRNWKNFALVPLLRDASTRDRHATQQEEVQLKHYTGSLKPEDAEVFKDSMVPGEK
T1 sequence (Q704Y3 whole entry): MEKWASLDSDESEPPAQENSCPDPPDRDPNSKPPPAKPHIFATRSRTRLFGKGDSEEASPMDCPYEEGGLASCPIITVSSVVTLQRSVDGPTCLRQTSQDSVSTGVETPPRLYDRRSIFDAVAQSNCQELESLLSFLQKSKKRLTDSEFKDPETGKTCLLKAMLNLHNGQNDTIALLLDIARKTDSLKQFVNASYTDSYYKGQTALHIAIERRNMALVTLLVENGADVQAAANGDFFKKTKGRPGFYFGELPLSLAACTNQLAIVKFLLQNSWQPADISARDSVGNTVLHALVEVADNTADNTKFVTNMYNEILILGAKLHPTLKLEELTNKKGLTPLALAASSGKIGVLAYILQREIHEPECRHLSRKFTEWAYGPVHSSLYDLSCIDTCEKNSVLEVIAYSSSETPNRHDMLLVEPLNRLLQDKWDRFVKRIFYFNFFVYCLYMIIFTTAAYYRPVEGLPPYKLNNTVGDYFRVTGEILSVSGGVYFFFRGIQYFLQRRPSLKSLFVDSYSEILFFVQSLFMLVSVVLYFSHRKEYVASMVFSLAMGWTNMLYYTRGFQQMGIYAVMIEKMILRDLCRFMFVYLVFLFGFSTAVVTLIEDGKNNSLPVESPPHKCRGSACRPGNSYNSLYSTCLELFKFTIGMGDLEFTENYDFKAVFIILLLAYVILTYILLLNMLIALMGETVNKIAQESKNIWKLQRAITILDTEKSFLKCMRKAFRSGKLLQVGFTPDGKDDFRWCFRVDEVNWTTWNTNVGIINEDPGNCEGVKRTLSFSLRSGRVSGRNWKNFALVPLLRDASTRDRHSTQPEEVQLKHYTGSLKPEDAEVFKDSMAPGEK
Protocol for nocifensive behaviors: Increasing amounts of electrical current were applied to the pancreas through a previously implanted electrode and the total number of nocifensive behaviors was recorded.
Control TNBS rats received an equal volume of normal saline. The next day the rats were tested for their behavioral response for pain by administering successive application of electrical current at 2, 5 and 10 mA for 5 minutes through a pair of electrodes implanted in the pancreas at the time of TNBS administration.

Regarding `C=C(C)[C@]12C[C@@H](C)[C@@]34O[C@](Cc5ccccc5)(O[C@@H]1[C@@H]3C=C(COC(=O)Cc1ccc(O)c(OC)c1)C[C@]1(O)C(=O)C(C)=C[C@@H]41)O2` [resiniferatoxin], the “afferent nerve signaling to colorectal distention” value in the series with gastropancreatic nerves [1] is given as “near complete attenuation; also recorded: nearly complete attenuation”. Besides, the “percentage of gastric emptying after 3 hours” value is reported as “significant increase” with gastric emptying (instilled into the jejunum five weeks prior, P=0.04, n=4) and “significant increase” with gastric emptying (instilled into the stomach five weeks prior, P=0.01, n=4 rats). In addition, in the series with afferent nerves, the “potency relative to capsaicin” value is 200 times. Also, the acute experimental pancreatitis result in the series with nociceptors is “significant attenuation”.
As to `Oc1cc2c(cc1O)CN(C(=S)NCCc1ccc(Cl)cc1)CCC2` [capsazepine], the “NK1R endocytosis in acinar cells (surrogate marker for SP release)” value on TRPV1 [2] (cerulein-induced pancreatitis) is “reduction”. The cerulein induced pancreatitis result on TRPV1 [2] is “attenuate”.
Take `CCO` [ethanol]: the “multi-unit spike potentials after intra-pancreatic capsaicin” value in the series on gastropancreatic nerves [3] (intragastric ethanol five minutes before capsaicin into pancreatic duct, vs intragastric saline, P<0.05, n=8 rats/group) is reported as “significant increase”. The “gastropancreatic nerve activity, ethanol by itself” value in the series on gastropancreatic nerves [3] (intragastric via orogastric lavage after pyloric ligation, before capsaicin) is “did not increase”. In addition, the “number of nocifensive behaviors” value with nocifensive behaviors is on record as “increased the number of nocifensive behaviors significantly”. On TRPV1 [4] (trigeminal and dorsal root ganglia neurons), the “TRPV1 stimulation, capsazepine-sensitive calcium response” value is given as “directly stimulate”. The “sensitization of dorsal root ganglia neurons to the effects of capsaicin” value at TRPV1 [4] was “sensitize”. In addition, in the series with TRPV1 [5], the “release of substance P” value is given as “induce the release”. Moreover, the contractions of bronchi entry in the series with guinea pig bronchi was “caused contractions”. In addition, in the series with guinea pig airways, the broncho-constriction result is listed as “caused broncho-constriction” and the “plasma extravasation in the airways” value is recorded as “increased plasma extravasation”.
Turning to `COc1cc(CNC(=O)CCCC/C=C/C(C)C)ccc1O` [capsaicin], in series [6], the “pancreatic edema (water content)” value is recorded as “causes pancreatic edema”. Also, the acute experimental pancreatitis result with nociceptors is “significant attenuation”.
On to `COc1cccc(NC(=O)/C=C/c2ccc(Cl)cc2)c1` [SB-366791], for which the “pancreatic pain behavioral response” value at TRPV1 [7] is “markedly reduced”.
